Measurements from PMC3292467, “Comparison between ^68Ga-bombesin (^68Ga-BZH3) and the cRGD tetramer ^68Ga-RGD4 studies in an experimental nude rat model with a neuroendocrine pancreatic tumor cell line” (EJNMMI Research, 2011).
Where two headings read alike, the source gives them in different places. Square brackets hold non-standard residues; d marks the D form.

Legend:
[1] = 3D fused PET-CT images; male rat
Experimental: The study included nine AR 42 J tumor-bearing nude rats. We grouped all rats according to PET tracers (B, ^68Ga-BZH3 and R, ^68Ga-RGD4), used in dynamic PET scanning, as noted in Table 1. Dynamic PET studies were performed for 60 min after the intravenous application of 10 to 30 MBq ^68Ga-RGD4 or 20 to 40 MBq ^68Ga-BZH3, using a 28-frame protocol (ten frames of 30 s, five frames of 60 s, five frames of 120 s, and eight frames of 300 s). Two animals can be examined in parallel per scanning by a homemade injector (Figure 2). A dedicated PET-CT system (Biograph™ mCT, 128 S/X, Siemens Co, Erlangen, Germany) with an axial field of view of 21.6 cm with TrueV, operated in a three-dimensional mode, was used for all animal studies. The system provides the simultaneous acquisition of 369 transverse slices with a slice thickness of 0.6 mm. The animals were positioned in the axial plane of the system to maintain the best resolution in the center of the system. […] The SUV images were used for all further quantitative evaluations.
Dynamic PET data were evaluated using the software package PMOD (provided courtesy of PMOD Technologies Ltd., Zuerich, Switzerland). Areas with enhanced tracer uptake on transaxial, coronal, and sagittal images were evaluated visually. […] A detailed quantitative evaluation of tracer kinetics requires the use of compartmental modeling. […]

[2] = tested on: AR42J tumor; test: Dynamic PET, tumor uptake (SUV) in AR42J tumor-bearing nude rats; type: in vivo, rat; conditions: i.v. 20 to 40 MBq (BZH3, n = 5), 10 to 30 MBq (RGD4, n = 4), nude rats
From the text: (§1) Irregular regions of interest were drawn manually.

[3] = as above; type: in vivo, rat; conditions: Wistar (nude), rat, tumor (AR42J), iv, i.v. 20 to 40 MBq (BZH3, n = 5), 10 to 30 MBq (RGD4, n = 4), nude rats, read-out: SUV (standardized uptake value) in tumor
From the text: as §1

[4] = tested on: AR42J tumor; conditions: AR42J tumor-bearing nude rats, n = 5 (BZH3), n = 4 (RGD4); for VB (vessel density, fractional blood volume): dynamic PET 60 min, i.v.
Experimental: The AR42J cell line, derived from a rat exocrine pancreas neuroendocrine tumor, was used. Cells were obtained from the European Collection of Cell Cultures and were grown in RPMI 1640 medium supplemented with 2 mmol/L glutamine and 10% fetal calf serum. Adherent cells were dislodged with trypsin/ethylenediaminetetraacetic acid (0.02%: 0.05%, w/v). For PET-studies, 5 × 10^6 cells in 200 μl RPMI without supplements were inoculated subcutaneously in the right hind leg of Wistar rats.
The study included nine AR 42 J tumor-bearing nude rats. We grouped all rats according to PET tracers (B, ^68Ga-BZH3 and R, ^68Ga-RGD4), used in dynamic PET scanning, as noted in Table 1. Dynamic PET studies were performed for 60 min after the intravenous application of 10 to 30 MBq ^68Ga-RGD4 or 20 to 40 MBq ^68Ga-BZH3, using a 28-frame protocol (ten frames of 30 s, five frames of 60 s, five frames of 120 s, and eight frames of 300 s). Two animals can be examined in parallel per scanning by a homemade injector (Figure 2). A dedicated PET-CT system (Biograph™ mCT, 128 S/X, Siemens Co, Erlangen, Germany) with an axial field of view of 21.6 cm with TrueV, operated in a three-dimensional mode, was used for all animal studies. The system provides the simultaneous acquisition of 369 transverse slices with a slice thickness of 0.6 mm. The animals were positioned in the axial plane of the system to maintain the best resolution in the center of the system. All PET images were attenuation-corrected and an image matrix of 400 × 400 pixels was used for iterative image reconstruction (voxel size 1.565 × 1.565 × 0.6 mm) based on the syngo MI PET/CT 2009C software version. After the end of the dynamic series an ultrahigh resolution CT with 85 mA, 80 kV and a pitch of 0.85 cm was performed for attenuation correction of the acquired dynamic emission data. The reconstructed images were converted to SUV images based on the formula [24]: SUV = Tissue concentration (becquerel per gram)/[injected dose ([…]))/body weight (gram)]. The SUV 55 to 60 min post-injection was used for the assessment of both tracers. The SUV images were used for all further quantitative evaluations.
Dynamic PET data were evaluated using the software package PMOD (provided courtesy of PMOD Technologies Ltd., Zuerich, Switzerland). Areas with enhanced tracer uptake on transaxial, coronal, and sagittal images were evaluated visually. A volume of interest consists of several regions of interest over the target area. Irregular regions of interest were drawn manually. A detailed quantitative evaluation of tracer kinetics requires the use of compartmental modeling. A two-tissue-compartment model was used to evaluate the dynamic studies.
In animals, a partial volume correction must be applied to the data due to the small size of the input and tumor volumes of interest (VOIs). Herein, the recovery coefficient was 0.85 for a diameter of 8 mm and 0.32 for a diameter of 3 mm based on phantom measurements as well as the recent parameter settings used with the reconstruction software. For the input function the mean values of the VOI data obtained from the heart were used. We used a preprocessing tool, which allowed a fit of the input curve by a sum of up to three decaying exponentials. The learning-machine two-tissue-compartment model was used for the fitting and provided five parameters: the transport parameters for tracer into and out of the cell, K1 and k2, the parameters for phosphorylation and dephosphorylation of intracellular tracer, k3 and k4, and the fractional blood volume, also called vessel density (VB), which reflects the amount of blood in the VOI. Following compartment analysis, we calculated the global influx of tracer from the compartment data using the formula: influx = (K1 × k3)/(k2 + k3). […] The model parameters were accepted when K1 - k4 was less than 1 and VB exceeded 0. The unit for the rate constants K1 to k4 was 1/min.

[5] = target: ανβ3 (Homo sapiens, UniProt P05106+P06756); test: biochemical
[6] = target: T1, integrin ανβ3, P06756; test: not stated; IC50 of ^68Ga-RGD4 for ανβ3; format, competitor and conditions not told; conditions: remark: other sources report otherwise
T1 chain 1: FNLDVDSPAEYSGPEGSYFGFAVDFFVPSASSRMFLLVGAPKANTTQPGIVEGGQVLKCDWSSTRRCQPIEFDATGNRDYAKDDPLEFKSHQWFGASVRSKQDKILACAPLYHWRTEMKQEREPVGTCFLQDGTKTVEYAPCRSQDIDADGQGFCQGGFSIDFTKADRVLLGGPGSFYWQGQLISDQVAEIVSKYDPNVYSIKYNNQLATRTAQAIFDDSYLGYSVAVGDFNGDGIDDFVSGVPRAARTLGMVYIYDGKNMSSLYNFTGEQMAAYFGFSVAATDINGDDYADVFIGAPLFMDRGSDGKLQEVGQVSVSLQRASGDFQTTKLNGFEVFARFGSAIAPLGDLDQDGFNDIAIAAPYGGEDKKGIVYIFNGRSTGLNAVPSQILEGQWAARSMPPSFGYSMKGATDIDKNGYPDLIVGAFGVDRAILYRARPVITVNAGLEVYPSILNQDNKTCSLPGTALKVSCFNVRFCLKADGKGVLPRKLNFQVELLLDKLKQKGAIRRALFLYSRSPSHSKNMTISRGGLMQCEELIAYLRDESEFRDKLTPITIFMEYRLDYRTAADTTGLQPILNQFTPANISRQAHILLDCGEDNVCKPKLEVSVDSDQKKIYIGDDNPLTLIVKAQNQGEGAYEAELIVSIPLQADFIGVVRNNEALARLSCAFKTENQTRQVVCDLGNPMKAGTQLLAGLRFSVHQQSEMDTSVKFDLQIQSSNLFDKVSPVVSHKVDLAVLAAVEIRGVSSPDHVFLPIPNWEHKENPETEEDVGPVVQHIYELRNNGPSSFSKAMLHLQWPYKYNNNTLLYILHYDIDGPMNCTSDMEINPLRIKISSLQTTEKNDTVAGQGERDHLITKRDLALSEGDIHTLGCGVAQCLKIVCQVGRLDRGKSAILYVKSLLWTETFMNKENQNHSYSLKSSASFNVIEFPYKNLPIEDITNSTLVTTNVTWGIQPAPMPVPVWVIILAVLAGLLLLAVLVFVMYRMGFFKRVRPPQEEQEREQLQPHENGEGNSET
T1 chain 2: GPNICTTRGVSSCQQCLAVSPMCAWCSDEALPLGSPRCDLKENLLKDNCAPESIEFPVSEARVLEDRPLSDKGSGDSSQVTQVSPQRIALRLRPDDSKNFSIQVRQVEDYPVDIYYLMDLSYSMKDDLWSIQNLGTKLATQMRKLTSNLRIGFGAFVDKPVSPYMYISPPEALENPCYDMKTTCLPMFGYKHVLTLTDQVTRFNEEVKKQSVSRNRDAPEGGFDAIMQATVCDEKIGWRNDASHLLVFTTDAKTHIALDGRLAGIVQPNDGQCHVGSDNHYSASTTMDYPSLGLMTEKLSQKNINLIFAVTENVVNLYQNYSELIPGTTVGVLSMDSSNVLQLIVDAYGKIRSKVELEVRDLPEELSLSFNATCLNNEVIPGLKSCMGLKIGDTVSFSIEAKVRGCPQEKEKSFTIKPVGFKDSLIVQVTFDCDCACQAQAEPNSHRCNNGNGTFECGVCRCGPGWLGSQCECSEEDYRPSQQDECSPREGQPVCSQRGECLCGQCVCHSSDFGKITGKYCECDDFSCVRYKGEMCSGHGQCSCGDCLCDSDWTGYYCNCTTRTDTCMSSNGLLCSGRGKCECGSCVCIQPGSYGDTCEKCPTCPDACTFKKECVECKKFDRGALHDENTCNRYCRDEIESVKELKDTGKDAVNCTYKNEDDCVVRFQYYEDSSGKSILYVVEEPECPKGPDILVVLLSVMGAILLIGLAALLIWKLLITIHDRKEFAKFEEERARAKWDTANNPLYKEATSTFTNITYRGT

[7] = median, between tracers P 0.05*

N=C(N)NCCC[C@@H]1NC(=O)[C@H](CCCCNC(=O)COCCOCCNC(=O)CSC2CC(=O)N(CCCC(=O)NCCCC[C@H](NC(=O)CCCN3C(=O)CC(SCC(=O)NCCOCCOCC(=O)NCCCC[C@@H]4NC(=O)[C@@H](Cc5ccccc5)NC(=O)[C@H](CC(=O)O)NC(=O)CNC(=O)[C@H](CCCNC(=N)N)NC4=O)C3=O)C(=O)NCCCC[C@H](NC(=O)[C@H](CCCCNC(=O)CCCN3C(=O)CC(SCC(=O)NCCOCCOCC(=O)NCCCC[C@@H]4NC(=O)[C@@H](Cc5ccccc5)NC(=O)[C@H](CC(=O)O)NC(=O)CNC(=O)[C@H](CCCNC(=N)N)NC4=O)C3=O)NC(=O)CCCN3C(=O)CC(SCC(=O)NCCOCCOCC(=O)NCCCC[C@@H]4NC(=O)[C@@H](Cc5ccccc5)NC(=O)[C@H](CC(=O)O)NC(=O)CNC(=O)[C@H](CCCNC(=N)N)NC4=O)C3=O)C(=O)N[C@@H](CCCCNC(=O)CN3CCN(CC(=O)O)CCN(CC(=O)O)CCN(CC(=O)O)CC3)C(N)=O)C2=O)NC(=O)[C@@H](Cc2ccccc2)NC(=O)[C@H](CC(=O)O)NC(=O)CNC1=O (some centres unmarked) [^68Ga-RGD4, metal not drawn]
tracer uptake in other sites [1]: heart (exhibit for ^68Ga-RGD4), liver, kidney, urinary bladder, and testicles
SUV (standardized uptake value) in tumor ([2]; maximum, 55 to 60 min post-injection): 1.3084
SUV (standardized uptake value) in tumor ([2]; median, 55 (56) to 60 min post-injection, between tracers P 0.8065, listed as 68Ga-RGD tetramer): 0.99
SUV (standardized uptake value) in tumor ([2]; minimum, 55 to 60 min post-injection): 0.7833
SUV ([3]; mean, 55 to 60 min post-injection): 1.02 SUV
SUV ([3]; median, 55 (56) to 60 min post-injection, between tracers P 0.8065): 0.989 SUV
VB (vessel density, fractional blood volume) ([4]; maximum): 0.0713
K1 (transport into the cell; associated with receptor binding) ([4]; maximum): 0.3195 min⁻¹
RBP (receptor binding potential) ([4]; maximum): 0.0514
k2 (displacement from the receptor) ([4]; maximum): 0.6152 min⁻¹
k3 (cellular internalisation) ([4]; maximum): 0.1352 min⁻¹
k4 (externalization) ([4]; maximum): 0.0504 min⁻¹
VB (vessel density, fractional blood volume) ([4]; mean): 0.0582
K1 (transport into the cell; associated with receptor binding) ([4]; mean): 0.2739 min⁻¹
RBP (receptor binding potential) ([4]; mean): 0.0453
k2 (displacement from the receptor) ([4]; mean): 0.5386 min⁻¹
k3 (cellular internalisation) ([4]; mean): 0.1097 min⁻¹
k4 (externalization) ([4]; mean): 0.0443 min⁻¹
VB (vessel density, fractional blood volume) [4, 7]: 0.0574
RBP (receptor binding potential) ([4]; median, between tracers P 0.0275*): 0.0442
K1 (transport into the cell; associated with receptor binding) [4, 7]: 0.2728 min⁻¹
k4 (externalization) [4, 7]: 0.0442 min⁻¹
k2 (displacement from the receptor) ([4]; median, between tracers P 0.4624): 0.5721 min⁻¹
k3 (cellular internalisation) ([4]; median, between tracers P 0.8065): 0.1180 min⁻¹
VB (vessel density, fractional blood volume) ([4]; minimum): 0.0468
K1 (transport into the cell; associated with receptor binding) ([4]; minimum): 0.2304 min⁻¹
RBP (receptor binding potential) ([4]; minimum): 0.0414
k2 (displacement from the receptor) ([4]; minimum): 0.3952 min⁻¹
k3 (cellular internalisation) ([4]; minimum): 0.0678 min⁻¹
k4 (externalization) ([4]; minimum): 0.0382 min⁻¹
IC50 [5]: 4.97 µM

cyclo(RGD[dF]K) (not fully specified (residue 5); also: tetramer on DOTA-Mal4 core, 68Ga on DOTA) [^68Ga-RGD tetramer (^68Ga-labelled DOTA-comprising RGD tetramer)]
IC50 [6]: 4.97 µM
